Entries after “also recorded” stand apart in the source; their conditions may differ.
B1: ovalbumin (protein, UniProt P01012 2-386, looked up)
Ovalbumin: GSIGAASMEFCFDVFKELKVHHANENIFYCPIAIMSALAMVYLGAKDSTRTQINKVVRFDKLPGFGDSIEAQCGTSVNVHSSLRDILNQITKPNDVYSFSLASRLYAEERYPILPEYLQCVKELYRGGLEPINFQTAADQARELINSWVESQTNGIIRNVLQPSSVDSQTAMVLVNAIVFKGLWEKAFKDEDTQAMPFRVTEQESKPVQMMYQIGLFRVASMASEKMKILELPFASGTMSMLVLLPDEVSGLEQLESIINFEKLTEWTSSNVMEERKIKVYLPRMKMEEKYNLTSVLMAMGITDVFSSSANLSGISSAESLKISQAVHAAHAEINEAGREVVGSAEAGVDAASVSEEFRADHPFLFCIKHIATNAVLFFGRCVSP
notes: positive experimental control consisting of ovalbumin at 200 μg

What was measured:
RSV-A [1] = assay: Anti-RSV-A antibody titer before and after immunization in naive mice; assay type: in vivo, Balb/c mice
Method: (§1) In order to test the immunogenicity of the G23a and G20a peptides, Balb/c mice were immunized with 6 or 1.5 μg of G2Na equivalent twice, on D0 and D14, intramuscularly.
(§2) Some mice were sensitized with RSV 20 days before the first immunization in order to make them seropositive with respect to RSV. A sample was taken from the mice before each immunization and the anti-G2Na, RSV-A and RSV-B antibody titers were determined.

RSV-B = assay: Anti-RSV-B antibody titer before and after immunization in naive mice; assay type: in vivo; conditions: naive Balb/c mice, 6 or 1.5 μg G2Na equivalent i.m. on D0 and D14; after first immunization
Method: as §1, §2

RSV-A [2] = assay: Protection against an RSV-A challenge in immunized mice (viral titer 5 days after challenge); assay type: in vivo, Balb/c mice; conditions: naive mice
Method: as §1
Ten days after the final immunization, the mice were challenged with 10^5 pfu/50 μl of RSV-A. The viral titer was measured 5 days after the challenge.

[3] = Determination of the IHS (immediate hypersensitivity) in guinea pigs; assay type: in vivo; conditions: for death of the guinea pigs (dead/tested): i.m. D0 and D8 with 20% adjuphos, i.v. booster D21
Method: Guinea pigs are immunized on D0 and D8 with the various molecules adjuvented with 20% (v/v) adjuphos, given i.m. On D21, a booster is given with the various molecules, nonadjuvented, by i.v. The death of the guinea pigs is then evaluated.
A positive experimental control consisting of ovalbumin at 200 μg is included for each molecule tested (cf. table 3 below).

| Molecule | anti-RSV-A antibody response (RSV-A [1]; naive Balb/c mice, 6 or 1.5 μg G2Na equivalent i.m. on D0 and D14, after first immunization) | immunogenicity in naive mice (summary) (RSV-A [1]; naive mice) | anti-RSV-B antibody response (RSV-B) | protection of the pulmonary tract subsequent to challenge with RSV-A (RSV-A [2]; challenge 10^5 pfu/50 μl RSV-A ten days after final immunization) | immunogenicity and protection compared with BBG2Na (RSV-A [2]) | death of the guinea pigs (dead/tested) ([3]; 4 mg) | death of the guinea pigs (dead/tested) ([3]; 40 mg) | induction of IHS ([3]; guinea pigs, 6 animals tested) | death of the guinea pigs (dead/tested) ([3]; positive control T+, ovalbumin at 200 μg) |
| --- | --- | --- | --- | --- | --- | --- | --- | --- | --- |
| G20a: fragment of the G protein of RSV-A (140-190)-(144-158) of 69 amino acids, SEQ ID No.1 | develop anti-RSV-A and RSV-B antibody responses from the first immunization | immunogenic | develop anti-RSV-A and RSV-B antibody responses from the first immunization | induces protection of the pulmonary tract; also recorded: protective | comparable to those observed with BBG2Na | 0/6 | 0/6 | does not induce any IHS in 6/6 animals tested |  |
| B1 |  |  |  |  |  |  |  |  | 5/6 |

— patent US7309494B2, “Peptides of the respiratory syncytial virus (RSV) G protein and their use in a vaccine” (Pierre Fabre Medicament, priority 2001, dated 2007)
